Experimental data published in PubChem BioAssay AID2060498 (Molecular Pharmacology Branch, DTP, NCI, 2025).

System: 171881-019-R-J1-PDC tumor spheroids, viability
Assay: Anticancer human tumor 171881-019-R-J1-PDC patient-derived invasive breast carcinoma cell line growth inhibition [GQUAD]
Details: spheroids with HUVEC and MSC; for IC50: curve of first compound; for viability, T/C: stronger effect = lower value
In short: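 Tumor cells were grown as complex spheroids with HUVEC endothelial cells and mesenchymal stem cells as stroma. G-quadruplex stabilizers were combined with targeted agents over half-log dilutions from near the clinical Cmax, or from 10 microM.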

[1] = second compound 0.0316 µM, first compound 0.0316 µM
[2] = second compound 0.0316 µM, first compound 0.1 µM
[3] = second compound 0.0316 µM, first compound 0.316 µM
[4] = second compound 0.0316 µM, first compound 1 µM
[5] = second compound 0.0316 µM, first compound 3.16 µM
[6] = second compound 0.0316 µM, first compound 10 µM
[7] = second compound 0.1 µM, first compound 0.0316 µM
[8] = second compound 0.1 µM, first compound 0.1 µM
[9] = second compound 0.1 µM, first compound 0.316 µM
[10] = second compound 0.1 µM, first compound 1 µM
[11] = second compound 0.1 µM, first compound 3.16 µM
[12] = second compound 0.1 µM, first compound 10 µM
[13] = second compound 0.316 µM, first compound 0.0316 µM
[14] = second compound 0.316 µM, first compound 0.1 µM
[15] = second compound 0.316 µM, first compound 0.316 µM
[16] = second compound 0.316 µM, first compound 1 µM
[17] = second compound 0.316 µM, first compound 3.16 µM
[18] = second compound 0.316 µM, first compound 10 µM
[19] = second compound 1 µM, first compound 0.0316 µM
[20] = second compound 1 µM, first compound 0.1 µM
[21] = second compound 1 µM, first compound 0.316 µM
[22] = second compound 1 µM, first compound 1 µM
[23] = second compound 1 µM, first compound 3.16 µM
[24] = second compound 1 µM, first compound 10 µM
[25] = second compound 3.16 µM, first compound 0.0316 µM
[26] = second compound 3.16 µM, first compound 0.1 µM
[27] = second compound 3.16 µM, first compound 0.316 µM
[28] = second compound 3.16 µM, first compound 1 µM
[29] = second compound 3.16 µM, first compound 3.16 µM
[30] = second compound 3.16 µM, first compound 10 µM
[31] = second compound 10 µM, first compound 0.0316 µM
[32] = second compound 10 µM, first compound 0.1 µM
[33] = second compound 10 µM, first compound 0.316 µM
[34] = second compound 10 µM, first compound 1 µM
[35] = second compound 10 µM, first compound 3.16 µM
[36] = second compound 10 µM, first compound 10 µM
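Further: spheroids exposed to compounds for 7 days.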
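Wherever viability, T/C is given: 100% = DMSO vehicle control viability.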

Structure (SMILES): C=CC(=O)N1CCN(c2nc(=O)n(-c3c(C)ccnc3C(C)C)c3nc(-c4c(O)cccc4F)c(F)cc23)C(C)C1 (stereo unspecified) + Cc1[nH]c2ccc(F)cc2c1-c1nc2c3cccnc3c3ncccc3c2[nH]1
- IC50 (second compound 0.0316 µM): 9.2 µM
- IC50 (second compound 0.1 µM): 9.55 µM
- IC50 (second compound 0.316 µM): 8.67 µM
- IC50 (second compound 1 µM): 7.98 µM
- IC50 (second compound 3.16 µM): < 0.0316 µM
- IC50 (second compound 10 µM): < 0.0316 µM
- viability, T/C [1]: 92.1%
- viability, T/C [2]: 91.5%
- viability, T/C [3]: 84.8%
- viability, T/C [4]: 109%
- viability, T/C [5]: 90%
- viability, T/C [6]: 46.5%
- viability, T/C [7]: 83%
- viability, T/C [8]: 92%
- viability, T/C [9]: 101%
- viability, T/C [10]: 112%
- viability, T/C [11]: 87.9%
- viability, T/C [12]: 48.4%
- viability, T/C [13]: 100%
- viability, T/C [14]: 94.2%
- viability, T/C [15]: 91.4%
- viability, T/C [16]: 104%
- viability, T/C [17]: 92.8%
- viability, T/C [18]: 43.7%
- viability, T/C [19]: 84.9%
- viability, T/C [20]: 80.1%
- viability, T/C [21]: 76.2%
- viability, T/C [22]: 79.5%
- viability, T/C [23]: 85.4%
- viability, T/C [24]: 42.4%
- viability, T/C [25]: 21.9%
- viability, T/C [26]: 16.6%
- viability, T/C [27]: 26.8%
- viability, T/C [28]: 21.9%
- viability, T/C [29]: 24.5%
- viability, T/C [30]: 16%
- viability, T/C [31]: 38.5%
- viability, T/C [32]: 41.4%
- viability, T/C [33]: 41.6%
- viability, T/C [34]: 47.6%
- viability, T/C [35]: 44.9%
- viability, T/C [36]: 34.1%

Structure (SMILES): Cc1cccc(N(C)C(=O)C2C(O)CCN2c2nc(C)cc(C(F)(F)F)c2C#N)c1 (stereo unspecified) + Cc1[nH]c2ccc(F)cc2c1-c1nc2c3cccnc3c3ncccc3c2[nH]1
- IC50 (second compound 0.0316 µM): > 10 µM
- IC50 (second compound 0.1 µM): > 10 µM
- IC50 (second compound 0.316 µM): > 10 µM
- IC50 (second compound 1 µM): > 10 µM
- IC50 (second compound 3.16 µM): < 0.0316 µM
- IC50 (second compound 10 µM): 3.92 µM
- viability, T/C [1]: 113%
- viability, T/C [2]: 94.4%
- viability, T/C [3]: 95.6%
- viability, T/C [4]: 95.9%
- viability, T/C [5]: 100%
- viability, T/C [6]: 69%
- viability, T/C [7]: 105%
- viability, T/C [8]: 106%
- viability, T/C [9]: 93.7%
- viability, T/C [10]: 90.3%
- viability, T/C [11]: 81.9%
- viability, T/C [12]: 77.8%
- viability, T/C [13]: 97.4%
- viability, T/C [14]: 95.3%
- viability, T/C [15]: 91.9%
- viability, T/C [16]: 91.4%
- viability, T/C [17]: 102%
- viability, T/C [18]: 80.7%
- viability, T/C [19]: 91.7%
- viability, T/C [20]: 77.7%
- viability, T/C [21]: 91.8%
- viability, T/C [22]: 74.6%
- viability, T/C [23]: 90.5%
- viability, T/C [24]: 79%
- viability, T/C [25]: 23.7%
- viability, T/C [26]: 18.9%
- viability, T/C [27]: 30.2%
- viability, T/C [28]: 25.2%
- viability, T/C [29]: 20.3%
- viability, T/C [30]: 22.3%
- viability, T/C [31]: 47.4%
- viability, T/C [32]: 59%
- viability, T/C [33]: 48.1%
- viability, T/C [34]: 60.5%
- viability, T/C [35]: 48.8%
- viability, T/C [36]: 44.3%

Structure (SMILES): Cn1ncnc1[C@H]1c2n[nH]c(=O)c3cc(F)cc(c23)N[C@@H]1c1ccc(F)cc1 + Cc1[nH]c2ccc(F)cc2c1-c1nc2c3cccnc3c3ncccc3c2[nH]1
- IC50 (second compound 0.0316 µM): > 0.316 µM
- IC50 (second compound 0.1 µM): > 0.316 µM
- IC50 (second compound 0.316 µM): > 0.316 µM
- IC50 (second compound 1 µM): > 0.316 µM
- IC50 (second compound 3.16 µM): < 0.000999 µM
- IC50 (second compound 10 µM): < 0.000999 µM
- viability, T/C (second compound 0.0316 µM, first compound 0.000999 µM): 97.1%
- viability, T/C (second compound 0.0316 µM, first compound 0.00316 µM): 94.5%
- viability, T/C (second compound 0.0316 µM, first compound 0.00999 µM): 93.2%
- viability, T/C [1]: 101%
- viability, T/C (second compound 0.0316 µM, first compound 0.0999 µM): 94.6%
- viability, T/C [3]: 84.5%
- viability, T/C (second compound 0.1 µM, first compound 0.000999 µM): 88.5%
- viability, T/C (second compound 0.1 µM, first compound 0.00316 µM): 106%
- viability, T/C (second compound 0.1 µM, first compound 0.00999 µM): 90%
- viability, T/C [7]: 101%
- viability, T/C (second compound 0.1 µM, first compound 0.0999 µM): 99.1%
- viability, T/C [9]: 87.6%
- viability, T/C (second compound 0.316 µM, first compound 0.000999 µM): 102%
- viability, T/C (second compound 0.316 µM, first compound 0.00316 µM): 107%
- viability, T/C (second compound 0.316 µM, first compound 0.00999 µM): 91.9%
- viability, T/C [13]: 84.8%
- viability, T/C (second compound 0.316 µM, first compound 0.0999 µM): 102%
- viability, T/C [15]: 82.4%
- viability, T/C (second compound 1 µM, first compound 0.000999 µM): 79%
- viability, T/C (second compound 1 µM, first compound 0.00316 µM): 76.8%
- viability, T/C (second compound 1 µM, first compound 0.00999 µM): 81%
- viability, T/C [19]: 75%
- viability, T/C (second compound 1 µM, first compound 0.0999 µM): 89.1%
- viability, T/C [21]: 78.6%
- viability, T/C (second compound 3.16 µM, first compound 0.000999 µM): 20.5%
- viability, T/C (second compound 3.16 µM, first compound 0.00316 µM): 18.4%
- viability, T/C (second compound 3.16 µM, first compound 0.00999 µM): 23.2%
- viability, T/C [25]: 21.1%
- viability, T/C (second compound 3.16 µM, first compound 0.0999 µM): 19.7%
- viability, T/C [27]: 17.1%
- viability, T/C (second compound 10 µM, first compound 0.000999 µM): 48.6%
- viability, T/C (second compound 10 µM, first compound 0.00316 µM): 52.7%
- viability, T/C (second compound 10 µM, first compound 0.00999 µM): 55.2%
- viability, T/C [31]: 47.3%
- viability, T/C (second compound 10 µM, first compound 0.0999 µM): 56.7%
- viability, T/C [33]: 58.1%
